According to the NIST ThermoML archive (doi:10.1016/j.fluid.2013.10.033):
Numbers after ± are expanded uncertainties.

How the values were obtained:
[1] = xn = mol fraction of the nth substance listed; conditions: 298.15 K, 101 kPa, Liquid, Vibrating tube method
[2] = 298.15 K; 101.33 kPa; Liquid; Vibrating tube method
[3] = refractive index (Na D-line) (dimensionless); conditions: 298.15 K; 101.33 kPa; Liquid; Standard Abbe refractometry

mass density [2] | refractive index [3] | Structure (SMILES) | also measured
– | – | CCOS(=O)(=O)[O-].CC[n+]1ccccc1 [1-ethylpyridinium ethyl sulfate] + C1CCCCC1 | mass density ([1]; x2 = 0.017): 1247.74 ± 1.8 kg/m3
765.02 ± 0.24 kg/m3 | 1.42062 ± 0.0007 | CC1CCCCC1 [methylcyclohexane] | –
1252 ± 0.4 kg/m3 | 1.50525 ± 0.0007 | CCOS(=O)(=O)[O-].CC[n+]1ccccc1 [1-ethylpyridinium ethyl sulfate] | –
– | – | CCOS(=O)(=O)[O-].CC[n+]1ccccc1 [1-ethylpyridinium ethyl sulfate] + C1CCCCCCC1 | mass density ([1]; x2 = 0.009): 1249.15 ± 1.2 kg/m3
873.57 ± 0.11 kg/m3 | 1.49774 ± 0.00068 | c1ccccc1 [benzene] | –
– | – | CCOS(=O)(=O)[O-].CC[n+]1ccccc1 [1-ethylpyridinium ethyl sulfate] + c1ccccc1 | mass density ([1]; x2 = 0.406): 1171.69 ± 1.6 kg/m3
805.69 ± 0.24 kg/m3 | 1.44378 ± 0.0007 | C1=CCCCC1 [cyclohexene] | –
773.8 ± 0.13 kg/m3 | 1.4236 ± 0.00068 | C1CCCCC1 [cyclohexane] | –
831.47 ± 0.12 kg/m3 | 1.45598 ± 0.00068 | C1CCCCCCC1 [cyclooctane] | –
– | – | CCOS(=O)(=O)[O-].CC[n+]1ccccc1 [1-ethylpyridinium ethyl sulfate] + C1=CCCCC1 | mass density ([1]; x2 = 0.041): 1243.4 ± 1.8 kg/m3
– | – | CCOS(=O)(=O)[O-].CC[n+]1ccccc1 [1-ethylpyridinium ethyl sulfate] + CC1CCCCC1 | mass density ([1]; x2 = 0.013): 1248.79 ± 1.7 kg/m3
